Experimental data published in article PMC11459172 (Proceedings of the National Academy of Sciences of the …, 2024).

Tests used:
[1] = target: PARP1 (Homo sapiens, UniProt P09874); assay: In vitro PARP1 autoPARylation reaction with recombinant HTT-HAP40, western blot; format: biochemical; conditions: 10 fmol recombinant PARP1, 2 h at 30 °C, increasing amounts of HTT-HAP40
[2] = Fluorescence polarization with FAM-labeled 11-mer or 26-mer PAR; format: binding; conditions: 25 nM FAM-labeled PAR, up to 10 μM protein
[3] = system: PARP1/2; format: cell-based, human; conditions: TruHD fibroblasts, HD vs control; as Fig 3B; SI Fig S6C
[4] = target: PARG (Homo sapiens, UniProt Q86W56); format: cell-based; conditions: TruHD fibroblasts, HD vs control
Chain of PARG (Q86W56 whole entry): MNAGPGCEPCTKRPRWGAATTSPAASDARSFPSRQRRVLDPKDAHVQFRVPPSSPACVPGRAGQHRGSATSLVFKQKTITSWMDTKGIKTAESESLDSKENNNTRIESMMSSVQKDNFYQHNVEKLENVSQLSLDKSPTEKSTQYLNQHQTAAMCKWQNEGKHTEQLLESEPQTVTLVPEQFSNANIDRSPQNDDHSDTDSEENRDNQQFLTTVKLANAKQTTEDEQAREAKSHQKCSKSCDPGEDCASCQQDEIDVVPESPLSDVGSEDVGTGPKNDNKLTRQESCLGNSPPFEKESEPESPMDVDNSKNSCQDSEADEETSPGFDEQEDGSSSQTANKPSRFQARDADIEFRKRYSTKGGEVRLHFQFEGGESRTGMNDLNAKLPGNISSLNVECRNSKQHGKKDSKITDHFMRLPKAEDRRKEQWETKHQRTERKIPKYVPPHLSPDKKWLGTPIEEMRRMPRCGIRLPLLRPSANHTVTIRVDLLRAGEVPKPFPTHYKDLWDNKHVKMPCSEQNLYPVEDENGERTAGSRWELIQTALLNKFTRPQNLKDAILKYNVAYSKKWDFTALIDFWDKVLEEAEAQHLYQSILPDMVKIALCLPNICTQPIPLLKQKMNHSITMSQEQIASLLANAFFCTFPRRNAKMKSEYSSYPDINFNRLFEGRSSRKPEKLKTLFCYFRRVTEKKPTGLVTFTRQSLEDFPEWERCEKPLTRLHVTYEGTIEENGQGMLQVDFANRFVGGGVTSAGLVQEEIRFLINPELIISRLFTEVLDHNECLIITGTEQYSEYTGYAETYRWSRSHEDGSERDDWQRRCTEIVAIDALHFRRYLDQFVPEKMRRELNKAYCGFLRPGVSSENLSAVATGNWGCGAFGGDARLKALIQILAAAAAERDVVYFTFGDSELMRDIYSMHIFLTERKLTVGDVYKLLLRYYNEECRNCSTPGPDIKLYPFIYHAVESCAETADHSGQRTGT

Chain of PARP1 (P09874 whole entry): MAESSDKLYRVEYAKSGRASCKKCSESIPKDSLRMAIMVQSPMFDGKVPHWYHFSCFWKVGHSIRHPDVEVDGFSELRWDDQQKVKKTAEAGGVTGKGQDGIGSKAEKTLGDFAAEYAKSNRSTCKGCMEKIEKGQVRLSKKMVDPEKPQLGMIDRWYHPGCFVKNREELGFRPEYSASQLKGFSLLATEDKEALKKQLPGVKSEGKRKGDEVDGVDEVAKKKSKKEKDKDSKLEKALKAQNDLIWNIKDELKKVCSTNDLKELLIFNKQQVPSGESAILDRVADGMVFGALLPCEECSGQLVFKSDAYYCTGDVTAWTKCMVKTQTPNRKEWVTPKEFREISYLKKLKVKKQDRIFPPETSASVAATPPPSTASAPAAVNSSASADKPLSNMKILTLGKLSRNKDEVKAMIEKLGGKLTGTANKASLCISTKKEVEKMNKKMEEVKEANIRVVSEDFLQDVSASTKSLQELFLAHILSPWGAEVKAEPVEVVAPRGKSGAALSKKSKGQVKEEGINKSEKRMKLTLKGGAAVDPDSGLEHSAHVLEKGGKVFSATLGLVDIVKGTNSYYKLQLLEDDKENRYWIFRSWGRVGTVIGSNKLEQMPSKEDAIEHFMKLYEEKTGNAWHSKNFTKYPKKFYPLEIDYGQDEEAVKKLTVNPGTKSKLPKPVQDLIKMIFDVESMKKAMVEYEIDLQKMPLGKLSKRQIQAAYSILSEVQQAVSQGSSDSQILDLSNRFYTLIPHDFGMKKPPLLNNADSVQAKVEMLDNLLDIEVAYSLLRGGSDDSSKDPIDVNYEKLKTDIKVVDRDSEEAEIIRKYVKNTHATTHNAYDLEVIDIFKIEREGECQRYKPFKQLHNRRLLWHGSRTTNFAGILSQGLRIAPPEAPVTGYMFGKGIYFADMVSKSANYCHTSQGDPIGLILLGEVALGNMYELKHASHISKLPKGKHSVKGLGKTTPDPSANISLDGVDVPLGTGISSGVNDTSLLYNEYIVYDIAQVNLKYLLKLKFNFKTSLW

wild-type HTT: purified recombinant wild-type huntingtin in complex with HAP40, Q23
Effect on PARP1 autoPARylation activity [1]: stimulated PARP1 activity in a dose-dependent manner
PAR binding by fluorescence polarization ([2]; listed as HTT): binds long (26-mer) PAR chains, in preference to shorter (11-mer) substrates
PAR binding by fluorescence polarization ([2]; listed as HTT-HAP40 Q23): lower binding than the positive control PAR-binding protein HUWE1, but higher binding than the negative control non-PAR-binding protein USP5

Cn1ncnc1[C@H]1c2n[nH]c(=O)c3cc(F)cc(c23)N[C@@H]1c1ccc(F)cc1 [talazoparib]
PARP inhibitor IC50, HD cells compared to controls [3]: reduced IC50 in HD cells

PDD00017273
PARG inhibitor IC50, HD compared to control cells [4]: no difference between HD and control cells
